Measured values taken from patent US9261498B2, “Biomarker for sensitivity to mTOR inhibitor therapy in kidney cancer” (The Regents of the University of California, priority 2005, dated 2016).
“Also recorded” adds a separate entry of the source.

Assays:
[1] = system: mTOR; assay: Immunoblot of p-S6 and p-eIF4G in cell lysates (mTOR activity); format: cell-based, human
Procedure: (a) SN12C-CSCG and SN12C-VHLshRNA cell were treated with vehicle, 1 nM or 10 nM of CCI-779 and lysed 24 hours later. Lysates were subjected to immunoblotting for HIF-1α, HIF-2α, GLUT-1, CA-IX, p-eIF4G, p-S6 Ribosomal protein. Equal protein loading was verified using anti-β-actin antibody. (b) HIF-1α expression was probed by immunoblotting in SN12C-MSCV-5′TOP-HIF-1α cDNA (left panel) and SN12C-MSCV-HIF-1α cDNA (tight panel) post 24 hours of vehicle, 1 nM or 10 nM of CCI-779.
FIGS. 4A-4C. Rescue of CCI-779 growth suppression by HIF-1-α and HIF-2-α prolyl hydcroxylase mutants. […] Cell growth was measured by cell counts (n=3). […]
Cells and xenograft tumors were lysed in ECB lysis buffer (see, e.g. Kondo et al., Cancer Cell 1, 237-46 (2002)) or high-detergent buffer (2% SDS), (see, e.g. Chen et al., Nat Med 10, 33-9 (2004)), respectively, supplemented with complete protease and phosphatase inhibitor cocktails (Calbiochem). […] Bound antibody was detected using enhanced chemiluminescence (ECL, Amersham). For VEGF ELISA quantification, cells were plated in 6 well plates (1×10^5 per well). […] Thirty-six hours later, VEGF ELISA (R&D Systems) was performed according to the manufacturer's instructions, using a Fisher Plate reader. […]

[2] = system: HIF-1α mRNA; assay: Real-time quantitative RT-PCR of HIF-1α transcript; format: cell-based, human; details: 10 nM CCI-779
Procedure: Total RNA was extracted from SN12C-CSCG, ACHN-CSCG, SN12C-CSCG-VHLshRNA and ACHN-CSCG-VHL shRNA cell lines treated with vehicle or 10 nM of CCI-779 using the RNeasy kit (Qiagen). Two μg of total RNA was used as a template for the production of c DNA through reverse transcription. The reactions were assembled as in a 25 μl final volume as follows: 1 μM primers (random hexamers; Invitrogen), 10 mM DTT, 1X Superscript II buffer, […] of dATP, dCTP, dGTP and dTTP, 10U RNasin, 200 units of Superscript II reverse transcriptase. Each RNA template, primer and nuclease free water were combined and incubated for 10 minutes, then placed in an ice bath. The remaining reaction components were added and each reaction was incubated at 25° C. for 10 minutes, then 42° C. for 60 minutes and finally 70° C. for 15 minutes. Negative control reactions (which contained no RT enzyme) were also assembled. Real-time PCR was performed on an ABI Prism 7700 sequence detector (Applied Biosystems). Primers and specific probes for HIF-1α and 18S were obtained from Assays-on Demand Gene Expression products (Applied Biosystems). […] Threshold cycles (Ct's) for the RT samples were recorded. […] Tracer uptake by the tumors was expressed as the ratio between the maximum intratumoral and mean hepatic counts/pixel. All quantitative values are reported as mean±standard error of the mean (SEM).

SMILES: CO[C@H]1C[C@@H]2CC[C@@H](C)[C@@](O)(O2)C(=O)C(=O)N2CCCC[C@H]2C(=O)O[C@H]([C@H](C)C[C@@H]2CC[C@@H](OC(=O)C(C)(CO)CO)[C@H](OC)C2)CC(=O)[C@H](C)/C=C(\C)[C@@H](O)[C@@H](OC)C(=O)[C@H](C)C[C@H](C)/C=C/C=C/C=C/1C [CCI-779]
- phosphorylation of S6 and eIF4G ([1]; VHL knockdown cells expressing HIF-1α/HIF-2α mutants): decreased phosphorylation
- phosphorylation of S6 and eIF4G ([1]; parental and VHL knockdown cells, 1 and 10 nM CCI-779): reduced phosphorylation; also recorded: reduction in phosphorylation
- HIF-1α transcript (mRNA) levels [2]: no effect; also recorded: without exerting any effect on transcription; also recorded: did not see any changes
